Results published in ChEMBL document CHEMBL3045868, “Synthesis and antibacterial activities of para-alkoxy phenyl--ketoaldehyde derivatives” (Med Chem Res, 2013).
In brackets after ≈: the same amount, converted by molar mass.

Experiments:
Type in all cases: functional
Staphylococcus aureus [1] = experiment: Bactericidal activity against methicillin-resistant Staphylococcus aureus isolate 1 after 24 hr; details: isolate 1, 24 h
Staphylococcus aureus [2] = experiment: Antibacterial activity against methicillin-resistant Staphylococcus aureus assessed as growth inhibition after 16 to 18 hr by NCCLS agar dilution method
Staphylococcus aureus [3] = experiment: Bactericidal activity against Staphylococcus aureus clinical isolate 10 after 24 hr; details: isolate 10, 24 h
Staphylococcus aureus [4] = experiment: Antibacterial activity against Staphylococcus aureus ATCC 25923 assessed as growth inhibition after 16 to 18 hr by NCCLS agar dilution method
Staphylococcus aureus [5] = experiment: Bactericidal activity against Staphylococcus aureus clinical isolate 2 after 24 hr; details: isolate 2, 24 h
Staphylococcus aureus [6] = experiment: Antibacterial activity against Staphylococcus aureus clinical isolate 7 assessed as growth inhibition after 16 to 18 hr by NCCLS agar dilution method
Staphylococcus aureus [7] = experiment: Bactericidal activity against methicillin-resistant Staphylococcus aureus isolate 4 after 24 hr; details: isolate 4, 24 h
Staphylococcus aureus [8] = experiment: Bactericidal activity against Staphylococcus aureus clinical isolate 4 after 24 hr; details: isolate 4, 24 h
Staphylococcus aureus [9] = experiment: Antibacterial activity against Staphylococcus aureus clinical isolate 1 assessed as growth inhibition after 16 to 18 hr by NCCLS agar dilution method
Staphylococcus aureus [10] = experiment: Antibacterial activity against Staphylococcus aureus clinical isolate 4 assessed as growth inhibition after 16 to 18 hr by NCCLS agar dilution method
Staphylococcus aureus [11] = experiment: Bactericidal activity against Staphylococcus aureus clinical isolate after 24 hr
Staphylococcus aureus [12] = experiment: Antibacterial activity against methicillin-resistant Staphylococcus aureus isolate 1 assessed as growth inhibition after 16 to 18 hr by NCCLS agar dilution method
Staphylococcus aureus [13] = experiment: Bactericidal activity against Staphylococcus aureus clinical isolate 9 after 24 hr; details: isolate 9, 24 h
Staphylococcus aureus [14] = experiment: Antibacterial activity against methicillin-resistant Staphylococcus aureus isolate 4 assessed as growth inhibition after 16 to 18 hr by NCCLS agar dilution method
Staphylococcus aureus [15] = experiment: Antibacterial activity against Staphylococcus aureus clinical isolate 9 assessed as growth inhibition after 16 to 18 hr by NCCLS agar dilution method
Staphylococcus aureus [16] = experiment: Bactericidal activity against methicillin-resistant Staphylococcus aureus isolate 5 after 24 hr; details: isolate 5, 24 h
Staphylococcus aureus [17] = experiment: Antibacterial activity against methicillin-resistant Staphylococcus aureus isolate 5 assessed as growth inhibition after 16 to 18 hr by NCCLS agar dilution method
Staphylococcus aureus [18] = experiment: Bactericidal activity against methicillin-resistant Staphylococcus aureus after 24 hr
Staphylococcus aureus [19] = experiment: Antibacterial activity against Staphylococcus aureus clinical isolate 8 assessed as growth inhibition after 16 to 18 hr by NCCLS agar dilution method
Staphylococcus aureus [20] = experiment: Bactericidal activity against Staphylococcus aureus clinical isolate 6 after 24 hr; details: isolate 6, 24 h
Staphylococcus aureus [21] = experiment: Bactericidal activity against methicillin-resistant Staphylococcus aureus isolate 3 after 24 hr; details: isolate 3, 24 h
Staphylococcus aureus [22] = experiment: Antibacterial activity against Staphylococcus aureus clinical isolate 10 assessed as growth inhibition after 16 to 18 hr by NCCLS agar dilution method
Staphylococcus aureus [23] = experiment: Antibacterial activity against Staphylococcus aureus clinical isolate 3 assessed as growth inhibition after 16 to 18 hr by NCCLS agar dilution method
Staphylococcus aureus [24] = experiment: Bactericidal activity against Staphylococcus aureus clinical isolate 8 after 24 hr; details: isolate 8, 24 h
Staphylococcus aureus [25] = experiment: Bactericidal activity against methicillin-resistant Staphylococcus aureus isolate 2 after 24 hr; details: isolate 2, 24 h
Staphylococcus aureus [26] = experiment: Antibacterial activity against Staphylococcus aureus clinical isolate 5 assessed as growth inhibition after 16 to 18 hr by NCCLS agar dilution method
Staphylococcus aureus [27] = experiment: Bactericidal activity against Staphylococcus aureus clinical isolate 1 after 24 hr; details: isolate 1, 24 h
Staphylococcus aureus [28] = experiment: Antibacterial activity against Staphylococcus aureus clinical isolate assessed as growth inhibition after 16 to 18 hr by NCCLS agar dilution method
Staphylococcus aureus [29] = experiment: Bactericidal activity against Staphylococcus aureus clinical isolate 5 after 24 hr; details: isolate 5, 24 h
Staphylococcus aureus [30] = experiment: Antibacterial activity against Staphylococcus aureus clinical isolate 6 assessed as growth inhibition after 16 to 18 hr by NCCLS agar dilution method
Staphylococcus aureus [31] = experiment: Antibacterial activity against methicillin-resistant Staphylococcus aureus isolate 3 assessed as growth inhibition after 16 to 18 hr by NCCLS agar dilution method
Staphylococcus aureus [32] = experiment: Bactericidal activity against Staphylococcus aureus clinical isolate 7 after 24 hr; details: isolate 7, 24 h
Staphylococcus aureus [33] = experiment: Bactericidal activity against Staphylococcus aureus clinical isolate 3 after 24 hr; details: isolate 3, 24 h
Staphylococcus aureus [34] = experiment: Antibacterial activity against methicillin-resistant Staphylococcus aureus isolate 2 assessed as growth inhibition after 16 to 18 hr by NCCLS agar dilution method
Staphylococcus aureus [35] = experiment: Antibacterial activity against Staphylococcus aureus clinical isolate 2 assessed as growth inhibition after 16 to 18 hr by NCCLS agar dilution method

Work on `CCCCCCCCCC(=O)CC=O` [HOUTTUYNIN] yielded an MBC (Staphylococcus aureus [1]) of 32 µg/mL (≈ 161 µM), an MIC50 (Staphylococcus aureus [2]) of 16 µg/mL (≈ 80.7 µM) and an MIC90 (Staphylococcus aureus [2]) of 16 µg/mL (≈ 80.7 µM). It also gave an MBC (Staphylococcus aureus [3]) of 128 µg/mL (≈ 645 µM), an MIC (Staphylococcus aureus [4]) of 32 µg/mL (≈ 161 µM) and an MBC (Staphylococcus aureus [5]) of 64 µg/mL (≈ 323 µM). For the same compound, the MIC (Staphylococcus aureus [6]) was 64 µg/mL (≈ 323 µM), the MBC (Staphylococcus aureus [7]) was 32 µg/mL (≈ 161 µM) and the MBC (Staphylococcus aureus [8]) was 128 µg/mL (≈ 645 µM). For the same compound, the MIC (Staphylococcus aureus [9]) was 64 µg/mL (≈ 323 µM), the MIC (Staphylococcus aureus [10]) was 64 µg/mL (≈ 323 µM) and the MBC50 (60.1); MBC90 (60.2) (Staphylococcus aureus [11]; read-out: MIC50) was 128 µg/mL (≈ 645 µM). The MBC50 (60.1); MBC90 (60.2) (Staphylococcus aureus [11]; read-out: MIC90) was 128 µg/mL (≈ 645 µM), the MIC (Staphylococcus aureus [12]) was 16 µg/mL (≈ 80.7 µM) and the MBC (Staphylococcus aureus [13]) was 256 µg/mL (≈ 1290 µM). The MIC (Staphylococcus aureus [14]) was 16 µg/mL (≈ 80.7 µM), the MIC (Staphylococcus aureus [15]) was 64 µg/mL (≈ 323 µM) and the MBC (Staphylococcus aureus [16]) was 64 µg/mL (≈ 323 µM). It also gave an MIC (Staphylococcus aureus [17]) of 16 µg/mL (≈ 80.7 µM), an MBC50 (Staphylococcus aureus [18]) of 64 µg/mL (≈ 323 µM) and an MBC90 (Staphylococcus aureus [18]) of 128 µg/mL (≈ 645 µM). The MIC (Staphylococcus aureus [19]) was 64 µg/mL (≈ 323 µM), the MBC (Staphylococcus aureus [20]) was 128 µg/mL (≈ 645 µM) and the MBC (Staphylococcus aureus [21]) was 64 µg/mL (≈ 323 µM). It also gave an MIC (Staphylococcus aureus [22]) of 32 µg/mL (≈ 161 µM), an MIC (Staphylococcus aureus [23]) of 64 µg/mL (≈ 323 µM) and an MBC (Staphylococcus aureus [24]) of 128 µg/mL (≈ 645 µM). It also gave an MBC (Staphylococcus aureus [25]) of 128 µg/mL (≈ 645 µM), an MIC (Staphylococcus aureus [26]) of 32 µg/mL (≈ 161 µM) and an MBC (Staphylococcus aureus [27]) of 64 µg/mL (≈ 323 µM). For the same compound, the MIC50 (Staphylococcus aureus [28]) was 64 µg/mL (≈ 323 µM), the MIC90 (Staphylococcus aureus [28]) was 64 µg/mL (≈ 323 µM) and the MBC (Staphylococcus aureus [29]) was 128 µg/mL (≈ 645 µM). For the same compound, the MIC (Staphylococcus aureus [30]) was 64 µg/mL (≈ 323 µM), the MIC (Staphylococcus aureus [31]) was 16 µg/mL (≈ 80.7 µM) and the MBC (Staphylococcus aureus [32]) was 64 µg/mL (≈ 323 µM). It also gave an MBC (Staphylococcus aureus [33]) of 128 µg/mL (≈ 645 µM), an MIC (Staphylococcus aureus [34]) of 16 µg/mL (≈ 80.7 µM) and an MIC (Staphylococcus aureus [35]) of 64 µg/mL (≈ 323 µM).
